# Where a name gives a salt, the structure may show the parent alone.
# Test: in vitro
# Settings: human, hek293t cells
row,Compound,"viability at 48 h, 25 µM [%]"
1,"O=C(CCl)C1(F)CCCCC1 [10-K19, 2-chloro-1-(1-fluorocyclohexyl)ethan-1-one]",97.5
2,"O=CN1CCc2cc(C(=O)CCl)ccc21 [10-K20, 5-(2-chloroacetyl)-2,3-dihydro-1H-indole-1-carbaldehyde]",89.7
3,"COC(=O)c1c(C(=O)CCl)c(C)n(C(C)C)c1C [10-K21, methyl 4-(2-chloroacetyl)-2,5-dimethyl-1-(propan-2-yl)-1H-pyrrole-3-carboxylate]",71.2
4,"O=C1NC(=O)c2cc(NC(=O)N3CCSSCC3)ccc21 [10-K22, N-(1,3-dioxo-2,3-dihydro-1H-isoindol-5-yl)-1,2,5-dithiazepane-5-carboxamide]",98.8
5,"Cc1cc(C(=O)CCl)c(C)n1CCC(C)C [10-L03, 2-chloro-1-[2,5-dimethyl-1-(3-methylbutyl)-1H-pyrrol-3-yl]ethan-1-one]",76.2
6,"COc1cc(OC)c(C(=O)CCl)c(OC)c1 [10-L04, 2-chloro-1-(2,4,6-trimethoxyphenyl)ethan-1-one]",80.7
7,"COc1ccc2[nH]c(C)c(C(=O)CCl)c2c1 [10-L05, 2-chloro-1-(5-methoxy-2-methyl-1H-indol-3-yl)ethan-1-one]",14.8
8,"NC(=O)c1csc(C(=O)CCl)c1 [10-L06, 5-(2-chloroacetyl)thiophene-3-carboxamide]",66.2
9,Cc1cccc(-n2cc(C(=O)CCl)nn2)c1 [10-L07],81.5
10,"O=C(CCl)c1cscn1 [10-L08, 2-chloro-1-(1,3-thiazol-4-yl)ethan-1-one]",59.2
11,"Cc1ccc(S(=O)(=O)N2CCSSCC2)c(F)c1 [10-L09, 5-(2-fluoro-4-methylbenzenesulfonyl)-1,2,5-dithiazepane]",92.2
12,"CCCn1c(N)c(C(=O)CCl)c(=O)[nH]c1=O [10-L10, 6-amino-5-(2-chloroacetyl)-1-propyl-1,2,3,4-tetrahydropyrimidine-2,4-dione]",97.8
13,"COc1ccc(N2C(=O)C=CC2=O)c([N+](=O)[O-])c1 [10-L11, 1-(4-methoxy-2-nitrophenyl)-2,5-dihydro-1H-pyrrole-2,5-dione]",100
14,"COC(=O)Cc1ccc(C(=O)CCl)s1 [10-L12, methyl 2-[5-(2-chloroacetyl)thiophen-2-yl]acetate]",76.1
15,"O=C(CCl)c1ccc(F)c(F)c1 [10-L13, 2-chloro-1-(3,4-difluorophenyl)ethan-1-one]",95.7
16,"N#CC(C(=O)CCl)c1nncn1-c1ccccc1 (stereo not drawn) [10-L14, 4-chloro-3-oxo-2-(4-phenyl-4H-1,2,4-triazol-3-yl)butanenitrile]",83.7
17,"Cn1c(=O)c(C(=O)CCl)c(N)n(Cc2ccccc2)c1=O [10-L15, 6-amino-1-benzyl-5-(2-chloroacetyl)-3-methyl-1,2,3,4-tetrahydropyrimidine-2,4-dione]",76.7
18,"O=C(CCl)c1ccc(Cl)c(Cl)c1 [10-L16, 2-chloro-1-(3,4-dichlorophenyl)ethan-1-one]",31.3
19,"O=C(CCl)c1cnc(N2CCCCC2)s1 [10-L17, 2-chloro-1-[2-(piperidin-1-yl)-1,3-thiazol-5-yl]ethan-1-one]",101
20,"Cc1cc(C(=O)CCl)c(C)n1-c1ccc(Cl)c(C(F)(F)F)c1 [10-L18, 2-chloro-1-{1-[4-chloro-3-(trifluoromethyl)phenyl]-2,5-dimethyl-1H-pyrrol-3-yl}ethan-1-one]",0.747
21,"Cc1cc(F)c(C(=O)CCl)cc1F [10-L19, 2-chloro-1-(2,5-difluoro-4-methylphenyl)ethan-1-one]",87

row,Compound,"viability at 48 h, 25 µM [%]"
1,"Cc1cc(C(=O)CCl)c(C)n1-c1ccccc1 [10-L20, 2-chloro-1-(2,5-dimethyl-1-phenyl-1H-pyrrol-3-yl)ethan-1-one]",1.11
2,"O=C(Cc1cccc(F)c1)N1CCSSCC1 [10-L21, 1-(1,2,5-dithiazepan-5-yl)-2-(3-fluorophenyl)ethan-1-one]",108
3,"CC(=O)N1CCc2cc(C(=O)C(C)Cl)ccc21 (stereo not drawn) [10-L22, 1-(1-acetyl-2,3-dihydro-1H-indol-5-yl)-2-chloropropan-1-one]",82.9
4,"O=C1CCc2cc(C(=O)CCl)ccc2N1 [10-M03, 6-(2-chloroacetyl)-1,2,3,4-tetrahydroquinolin-2-one]",1.31
5,"CC(=O)NCc1ccc(C(=O)C(C)Cl)s1 (stereo not drawn) [10-M04, N-{[5-(2-chloropropanoyl)thiophen-2-yl]methyl}acetamide]",93.5
6,"Cc1oc(C(N)=O)cc1C(=O)CCl [10-M05, 4-(2-chloroacetyl)-5-methylfuran-2-carboxamide]",27.7
7,"CC(Cl)C(=O)c1ccc(NC(=O)C(C)(C)C)cc1 (stereo not drawn) [10-M06, N-[4-(2-chloropropanoyl)phenyl]-2,2-dimethylpropanamide]",97.9
8,"NC(=O)COc1ccc(C(=O)CCl)cc1 [10-M07, 2-[4-(2-chloroacetyl)phenoxy]acetamide]",38.6
9,"CC(Cl)C(=O)c1ccc2c(c1)CCC2 (stereo not drawn) [10-M08, 2-chloro-1-(2,3-dihydro-1H-inden-5-yl)propan-1-one]",95.2
10,"O=C(CCl)c1ccncc1 [10-M09, 2-chloro-1-(pyridin-4-yl)ethan-1-one hydrochloride]",79.1
11,"O=C1C=CC(=O)N1c1ccc(F)cc1 [10-M10, 1-(4-fluorophenyl)-2,5-dihydro-1H-pyrrole-2,5-dione]",68.4
12,"Cc1coc(C)c1C(=O)CCl [10-M11, 2-chloro-1-(2,4-dimethylfuran-3-yl)ethan-1-one]",72.9
13,"CC(C)Cn1c(N)c(C(=O)CCl)c(=O)n(C)c1=O [10-M12, 6-amino-5-(2-chloroacetyl)-3-methyl-1-(2-methylpropyl)-1,2,3,4-tetrahydropyrimidine-2,4-dione]",97.1
14,"CC1CC(C(=O)CCl)CO1 (stereo not drawn) [10-M13, 2-chloro-1-(5-methyloxolan-3-yl)ethan-1-one]",102
15,"Cc1cc(C(=O)CCl)c(C)n1Cc1ccccc1 [10-M14, 1-(1-benzyl-2,5-dimethyl-1H-pyrrol-3-yl)-2-chloroethan-1-one]",78.4
16,"O=C(CCl)C1CC12CCOCC2 (stereo not drawn) [10-M15, 2-chloro-1-{6-oxaspiro[2.5]octan-1-yl}ethan-1-one]",108
17,"O=C(c1ccccc1)c1cc(Cl)ccc1N1C(=O)C=CC1=O [10-M16, 1-(2-benzoyl-4-chlorophenyl)-2,5-dihydro-1H-pyrrole-2,5-dione]",48.7
18,"O=C(CCl)COc1ccc(Cl)cc1 [10-M17, 1-chloro-3-(4-chlorophenoxy)propan-2-one]",26.1
19,"Cc1nc(C)c(S(=O)(=O)N2CCSSCC2)s1 [10-M18, 5-[(2,4-dimethyl-1,3-thiazol-5-yl)sulfonyl]-1,2,5-dithiazepane]",90.2
20,"Cn1cc(C(=O)CCl)nn1 [10-M19, 2-chloro-1-(1-methyl-1H-1,2,3-triazol-4-yl)ethan-1-one]",68.1
21,"O=C1CCCc2cc(C(=O)CCl)ccc2N1 [10-M20, 7-(2-chloroacetyl)-2,3,4,5-tetrahydro-1H-1-benzazepin-2-one]",80.5
